Laboratory results reported in US20240270748A1 (Merck Patent GmbH, priority 2021, published 2024).

Key:
SW620 Yap KO cells = assay: Viability assay in SW620 Yap KO (Yap independent) cells, CyQuant; type: cell-based; conditions: Homo sapiens, SW-620, 96 h, n.d. = value not detectable below threshold given in parentheses
Summary of the method: (§1)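 Seeded cells were dosed 24 h later in duplicate (10-point, 1:3 dilutions, top 30 μM final, 0.3% DMSO) and incubated 96 h at 37 °C. Viability was read with CyQUANT DNA dye after 1 h, fluorescence bottom read. NCI-H226 in RPMI 1640 medium; SW620 YAP/TAZ CRISPR knockout in DMEM/F-12 medium.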

NCI-H226 cells = assay: Viability assay in NCI-H226 (Yap-dependent) cells, CyQuant; type: cell-based, human; conditions: Homo sapiens, NCI-H226, 96 h, class symbols
Summary of the method: as §1

YAP-TEAD interaction = assay: SK-HEP-1 reporter assay (8xTEAD responsive elements driving NanoLuc luciferase); type: cell-based; conditions: Homo sapiens, SK-HEP1, SK-HEP-1 reporter assay
Summary of the method: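 SK-HEP-1 cells stably carrying 8×TEAD-driven NanoLuc treated in duplicate, 10-point dose from 30 μM final, 0.3% DMSO, 24 h at 37° C. Luminescence after NanoGlo lysis/substrate addition; IC50 calculated from dose response.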

[1] = ND = not determinable within the entire range

IC50 (SW620 Yap KO cells) [µM] | IC50 (NCI-H226 cells) [µM] | IC50 (YAP-TEAD interaction; class symbols) [µM] | IC50 (SW620 Yap KO cells; [1]) [µM] | IC50 (YAP-TEAD interaction; n.d. = value not detectable below threshold given in parentheses, ND = not determinable within the entire range) [µM] | Structure (SMILES)
> 3 | 0.001 to 0.1 | 0.01 to 0.1 |  |  | Cc1cc(C(CO)NC(=O)c2ccc3c(c2)c2nn(C)nc2n3-c2ccc(C(F)(F)F)cc2)ccn1 (stereo not drawn) [Example C220, N-[2-hydroxy-1-(2-methylpyridin-4-yl)ethyl]-2-methyl-4-[4-(trifluoromethyl)phenyl]-2H,4H-[1,2,3]triazolo[4,5-b]indole-7-carboxamide]
 | 0.001 to 0.1 | 0.01 to 0.1 | > 30 |  | CN(c1ccc2c(c1)c1cn(C)nc1n2-c1ccc(C(F)(F)F)cc1)S(C)(=O)=O [Example C20, N-methyl-N-{2-methyl-8-[4-(trifluoromethyl)phenyl]-2H,8H-pyrazolo[3,4-b]indol-5-yl}methanesulfonamide]
 | 0.1 to 1 | 0.1 to 10 | > 30 |  | Cn1cc2c3cc(C4CC(Oc5cncnc5)=NO4)ccc3n(-c3ccc(C(F)(F)F)cc3)c2n1 (stereo not drawn) [Example C50, 5-[(5-{2-methyl-8-[4-(trifluoromethyl)phenyl]-2H,8H-pyrazolo[3,4-b]indol-5-yl}-4,5-dihydro-1,2-oxazol-3-yl)oxy]pyrimidine]
 | 0.001 to 0.1 | 0.01 to 0.1 | > 30 |  | COCC[C@@H](CO)NC(=O)c1ccc2c(c1)c1c(C)snc1n2-c1ccc(C(F)(F)F)cc1 (single isomer, unassigned) [Example C89]
 | 0.001 to 0.1 | 0.01 to 0.1 | > 30 |  | C[C@@H](CO)C(=O)Nc1ccc2c(c1)c1cn(C)nc1n2-c1ccc(C(F)(F)F)cc1 [Example C153, (2S)-3-hydroxy-2-methyl-N-{2-methyl-8-[4-(trifluoromethyl)phenyl]-2H,8H-pyrazolo[3,4-b]indol-5-yl}propanamide]
 | 0.001 to 0.1 | 0.01 to 0.1 | > 30 |  | Cn1nc2c3cc(C(=O)N[C@@H](CO)C(F)(F)F)ccc3n(-c3ccc(C(F)(F)F)cc3)c2n1 [Example C86, 2-methyl-N-[(2S)-1,1,1-trifluoro-3-hydroxypropan-2-yl]-4-[4-(trifluoromethyl)phenyl]-2H,4H-[1,2,3]triazolo [4,5-b]indole-7-carboxamide]
 | 0.001 to 0.1 | 0.01 to 0.1 | > 30 |  | Cn1nc2c3cc(C(=O)NCc4ccccc4)ccc3n(-c3ccc(C(F)(F)F)cc3)c2n1 [Example C134, N-benzyl-2-methyl-4-[4-(trifluoromethyl)phenyl]-2H,4H-[1,2,3]triazolo[4,5-b]indole-7-carboxamide]
 | 0.001 to 0.1 | 0.01 to 0.1 | > 30 |  | Cc1snc2c1c1cc(C(N)=O)ccc1n2-c1ccc(C(F)(F)F)cc1 [Example C120, 3-methyl-8-[4-(trifluoromethyl)phenyl]-8H-[1,2]thiazolo[3,4-b]indole-5-carboxamide]
 | 0.1 to 1 | 0.01 to 0.1 | > 30 |  | O=C(O)c1ccc2c(c1)c1cn(C3CCCCO3)nc1n2-c1ccc(C(F)(F)F)cc1 (stereo not drawn) [Example C10, 2-(oxan-2-yl)-8-[4-(trifluoromethyl)phenyl]-2H,8H-pyrazolo[3,4-b]indole-5-carboxylic acid]
 | 0.1 to 1 |  | > 3 | > 1 | Cn1cc2c3cc(NC(=O)c4ccncc4)ccc3n(-c3ccc(C(F)(F)F)cc3)c2n1 [Example C21, N-{2-methyl-8-[4-(trifluoromethyl)-phenyl]-2H,8H-pyrazolo[3,4-b]indol-5-yl}pyridine-4-carboxamide]
> 30 | 0.001 to 0.1 | 0.01 to 0.1 |  |  | Cn1nc2c3cc(C(=O)N[C@@](C)(CO)c4ccccn4)ccc3n(-c3ccc(C(F)(F)F)cc3)c2n1 (single isomer, unassigned) [Example C189]
 | 0.1 to 1 | 0.01 to 0.1 | > 3.2 |  | Cc1snc2c1c1cc(C(=O)N[C@H](CO)C(C)C)ccc1n2-c1ccc(C(F)(F)F)cc1 [Example C88, N-[(2S)-1-hydroxy-3-methylbutan-2-yl]-3-methyl-8-[4-(trifluoromethyl)phenyl]-8H-[1,2]thiazolo[3,4-b]indole-5-carboxamide]
